Source: patent US20260176258A1, “A THIOETHER COMPOUND HAVING SOFT DRUG PROPERTIES, A PHARMACEUTICAL COMPOSITION AND USE THEREOF” (Prime Gene Therapeutics Co., Ltd., priority 2022, published 2026)

Key:
hTRPV3 = target: T1, hTRPV3 (Homo sapiens, UniProt Q8NET8); test: Whole cell patch clamp of TRPV3 current in HEK-293 cells instantaneously expressing TRPV3; type: cell-based; details: for inhibition at 0.3 µM: HEK293, single concentration 0.3 μM, patch clamp, read-out: Inhibition rate on hTRPV3
T1 construct: expressed in transfected cells; host or cells: HEK-293
T1 sequence (Q8NET8 1-790): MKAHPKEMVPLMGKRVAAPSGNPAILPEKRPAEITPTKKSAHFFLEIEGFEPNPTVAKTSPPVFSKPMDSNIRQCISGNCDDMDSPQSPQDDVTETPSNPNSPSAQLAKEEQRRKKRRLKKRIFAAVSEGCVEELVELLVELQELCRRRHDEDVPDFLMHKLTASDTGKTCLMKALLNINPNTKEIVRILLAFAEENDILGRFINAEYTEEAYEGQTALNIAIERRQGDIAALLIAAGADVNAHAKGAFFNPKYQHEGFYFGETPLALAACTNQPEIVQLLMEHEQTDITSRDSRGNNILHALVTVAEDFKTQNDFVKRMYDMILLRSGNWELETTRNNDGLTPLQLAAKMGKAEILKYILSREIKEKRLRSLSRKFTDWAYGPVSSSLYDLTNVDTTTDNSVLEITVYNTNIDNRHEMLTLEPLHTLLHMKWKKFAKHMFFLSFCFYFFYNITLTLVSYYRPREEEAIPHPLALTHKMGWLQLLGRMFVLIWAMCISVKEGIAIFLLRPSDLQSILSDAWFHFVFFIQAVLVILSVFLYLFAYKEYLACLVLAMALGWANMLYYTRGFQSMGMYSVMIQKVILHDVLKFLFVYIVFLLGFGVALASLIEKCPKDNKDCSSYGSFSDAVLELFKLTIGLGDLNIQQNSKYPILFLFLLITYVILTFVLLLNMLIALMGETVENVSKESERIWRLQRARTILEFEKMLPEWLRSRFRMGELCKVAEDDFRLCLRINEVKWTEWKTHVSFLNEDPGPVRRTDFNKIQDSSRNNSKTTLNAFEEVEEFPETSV
Description: In this study, HEK-293 cells instantaneously expressing TRPV3 were used for experimental detection.
The operation steps are as follows:
The cells were cultured in DMEM medium containing 10% fetal bovine serum at a temperature of 37° C. and a carbon dioxide concentration of 5%.
Day 1: Cells were inoculated into a 6-well plate with 5×10^5 cells per well.
Day 2: Transfection was performed using Lipofectamine 3000 transfection reagent, with a plasmid to transfection reagent ratio of 1 μg: 2 μL. The total amount of plasmid used per well was 3 μg. Specifically, two sterile centrifuge tubes were taken and 100 μL Opti-MEM was added to each tube. 6 μL Lipofectamine 3000 was added to one tube and mixed well; and 3 μg plasmid was added to another tube and mixed well, and then 6 μL P3000 was added and mixed well; after that, the diluted plasmid DNA was addeds to diluted Lipofectamine 3000 and incubated at room temperature for 10-15 min. DNA liposome complex was dropped into the cells, shaked gently and mixed well, and then cultured in an incubator. The liquid was changed after 4 to 6 h.
Day 3: The cells were digested and seeded into 24 well plates with pre-placed cover slides, with 8×10^3 cells per well.
Day 4: Patch clamp testing was performed.
The voltage stimulation protocol for recording TRPV3 current using whole cell patch clamp is as follows: after forming a whole cell seal, a cell membrane voltage clamp was set at −80 mV. Firstly, a membrane potential was recorded at 0 mV, and then a voltage was command to start from −100 mV, to depolarize in the form of Ramp to 100 mV within 100 ms, and finally restore to 0 mV. Data collection was repeated every 5 seconds to observe the inhibitory effect of pharmaceutical on peak current. Experimental data was collected by EPC 10 amplifier (HEKA) and stored in PatchMaster (HEKA) software.
A microelectrode puller was used to pull the capillary glass tube into a recording electrode. The electrode filled with intracellular fluid was inserted into a microelectrode holder, and a microelectrode manipulator was operated under an inverted microscope to immerse the electrode in extracellular fluid and an electrode resistance (Rpip) was recorded. The electrode was brought into contact with the cell surface and a negative pressure suction was applied to form a high resistance seal (GΩ). At this point, a fast capacitance compensation was performed, and negative pressure was continued to apply in order to break the cell membrane, so that a whole cell recording mode was formed. Then, a slow capacitance compensation was performed and experimental parameters such as film capacitance (Cm) and series resistance (Rs) were recorded. No leakage compensation was provided.
When the TRPV3 current recorded by the whole cell had stabilized, administration was started. Each pharmaceutical concentration acted for 5 minutes (or until the current stabilized) before detecting the next concentration. A plurality of concentrations was tested for each test compound. A cover glass covered with cells was placed in a recording bath under an inverted microscope. A blank control extracellular solution and a working fluid for the compound to be tested sequentially flowed through the recording bath from low concentration to high concentration using gravity perfusion to act on the cells. Liquid exchange was performed using a peristaltic pump during recording. The current detected by each cell in the extracellular fluid without the compound served as its own control group. Each concentration was independently tested twice using at least two cells. All electrophysiological tests were conducted at room temperature.

hTRPV1 = hTRPV1 (Homo sapiens, UniProt Q8NER1); test: Patch clamp method, hTRPV1; type: cell-based
hTRPV4 = hTRPV4 (Homo sapiens, UniProt Q9HBA0); test: Patch clamp method, hTRPV4; type: cell-based
hTRPA1 = hTRPA1 (Homo sapiens, UniProt O75762); test: Patch clamp method, hTRPA1; type: cell-based
[1] = Liver microsome metabolism stability test, human; type: in vitro ADME; details: human liver microsomes 0.5 mg/mL, 1 μM compound, 37° C.
Description: (§1) Two separate experiments were conducted. a) NADPH: 10 μL of 20 mg/mL liver microsomes and 40 μL of 10 mM NADPH were added to a culture medium. The final concentrations of microsomes and NADPH were 0.5 mg/mL and 1 mM, respectively. b) NADPH free: 10 μL of 20 mg/mL liver microsomes and 40 μL of ultrapure H2O were added to a culture medium. The final concentration of microsomes was 0.5 mg/mL.
(§2) At the beginning of the reaction, 4 μL of 100 μM test compound solution or a control compound solution with a final concentration of 1 μM were added, and proceed at 37° C.
(§3) 50 μL aliquots were taken from the reaction solution at 0, 7, 15, 30, and 60 minutes. The reaction was stopped by adding 4 volumes of cold acetonitrile and IS (100 nM alprazolam, 200 nM labetalol, 200 nM caffeine, and 2 μM ketoprofen). The samples were centrifuged at 3220 grams for 40 minutes. 100 μL supernatant divided equally was mixed with 100 μL of ultrapure H2O, and use for LC-MS/MS analysis.

[2] = Liver microsome metabolism stability test, rat; type: in vitro ADME; details: rat liver microsomes 0.5 mg/mL, 1 μM compound, 37° C.
Description: as §1, §2, §3

Chain of hTRPV4 (Q9HBA0 whole entry): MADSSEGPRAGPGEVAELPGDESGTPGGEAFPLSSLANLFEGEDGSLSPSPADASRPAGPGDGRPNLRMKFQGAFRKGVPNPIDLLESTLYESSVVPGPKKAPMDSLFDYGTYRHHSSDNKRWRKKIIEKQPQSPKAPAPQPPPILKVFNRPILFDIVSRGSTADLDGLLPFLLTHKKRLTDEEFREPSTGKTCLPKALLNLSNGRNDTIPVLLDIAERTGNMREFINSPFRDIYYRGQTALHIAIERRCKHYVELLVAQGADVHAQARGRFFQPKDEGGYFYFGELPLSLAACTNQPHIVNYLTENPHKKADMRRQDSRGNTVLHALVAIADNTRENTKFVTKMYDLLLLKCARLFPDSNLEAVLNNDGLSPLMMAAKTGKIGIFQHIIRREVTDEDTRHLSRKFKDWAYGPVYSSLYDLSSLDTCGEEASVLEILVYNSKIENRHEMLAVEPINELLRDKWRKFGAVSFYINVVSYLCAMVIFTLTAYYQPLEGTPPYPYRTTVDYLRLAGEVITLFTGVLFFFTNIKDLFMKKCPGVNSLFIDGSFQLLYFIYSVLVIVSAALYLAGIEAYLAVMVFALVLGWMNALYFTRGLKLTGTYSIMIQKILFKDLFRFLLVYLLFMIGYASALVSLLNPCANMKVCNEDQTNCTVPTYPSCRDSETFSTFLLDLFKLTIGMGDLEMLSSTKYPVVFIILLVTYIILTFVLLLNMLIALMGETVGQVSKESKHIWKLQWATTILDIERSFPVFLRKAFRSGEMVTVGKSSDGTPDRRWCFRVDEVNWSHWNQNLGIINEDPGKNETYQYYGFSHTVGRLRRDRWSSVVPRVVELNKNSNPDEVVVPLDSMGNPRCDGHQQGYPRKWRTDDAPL
Chain of hTRPA1 (O75762 whole entry): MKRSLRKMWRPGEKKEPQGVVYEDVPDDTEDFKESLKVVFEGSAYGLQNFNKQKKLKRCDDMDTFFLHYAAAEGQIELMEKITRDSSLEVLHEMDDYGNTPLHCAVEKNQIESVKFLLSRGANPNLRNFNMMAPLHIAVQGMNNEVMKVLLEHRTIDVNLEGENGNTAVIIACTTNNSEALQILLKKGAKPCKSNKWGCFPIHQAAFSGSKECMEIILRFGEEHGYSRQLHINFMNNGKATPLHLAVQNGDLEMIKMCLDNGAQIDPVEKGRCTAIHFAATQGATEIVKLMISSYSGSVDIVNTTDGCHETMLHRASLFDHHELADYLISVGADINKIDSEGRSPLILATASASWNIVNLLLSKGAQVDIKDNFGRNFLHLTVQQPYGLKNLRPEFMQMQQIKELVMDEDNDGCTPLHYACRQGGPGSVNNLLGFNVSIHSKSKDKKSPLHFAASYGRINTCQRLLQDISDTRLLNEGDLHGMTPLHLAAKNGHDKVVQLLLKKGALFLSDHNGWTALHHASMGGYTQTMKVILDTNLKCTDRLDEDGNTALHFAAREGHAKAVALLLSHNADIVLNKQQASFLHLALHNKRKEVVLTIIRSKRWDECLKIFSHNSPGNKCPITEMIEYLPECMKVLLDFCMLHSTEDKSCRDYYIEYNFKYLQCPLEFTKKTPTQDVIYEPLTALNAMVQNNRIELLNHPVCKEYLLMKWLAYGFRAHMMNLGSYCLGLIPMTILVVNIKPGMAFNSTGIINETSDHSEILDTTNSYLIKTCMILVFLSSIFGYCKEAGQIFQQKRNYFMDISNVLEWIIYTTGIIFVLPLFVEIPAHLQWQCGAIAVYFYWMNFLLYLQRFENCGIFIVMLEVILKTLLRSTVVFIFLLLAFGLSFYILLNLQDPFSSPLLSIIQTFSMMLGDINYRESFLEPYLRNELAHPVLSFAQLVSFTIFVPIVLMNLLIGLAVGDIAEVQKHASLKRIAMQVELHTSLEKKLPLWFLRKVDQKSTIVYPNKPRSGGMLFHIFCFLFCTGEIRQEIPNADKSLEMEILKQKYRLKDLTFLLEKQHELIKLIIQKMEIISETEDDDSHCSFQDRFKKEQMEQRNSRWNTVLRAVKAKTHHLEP
Chain of hTRPV1 (Q8NER1 whole entry): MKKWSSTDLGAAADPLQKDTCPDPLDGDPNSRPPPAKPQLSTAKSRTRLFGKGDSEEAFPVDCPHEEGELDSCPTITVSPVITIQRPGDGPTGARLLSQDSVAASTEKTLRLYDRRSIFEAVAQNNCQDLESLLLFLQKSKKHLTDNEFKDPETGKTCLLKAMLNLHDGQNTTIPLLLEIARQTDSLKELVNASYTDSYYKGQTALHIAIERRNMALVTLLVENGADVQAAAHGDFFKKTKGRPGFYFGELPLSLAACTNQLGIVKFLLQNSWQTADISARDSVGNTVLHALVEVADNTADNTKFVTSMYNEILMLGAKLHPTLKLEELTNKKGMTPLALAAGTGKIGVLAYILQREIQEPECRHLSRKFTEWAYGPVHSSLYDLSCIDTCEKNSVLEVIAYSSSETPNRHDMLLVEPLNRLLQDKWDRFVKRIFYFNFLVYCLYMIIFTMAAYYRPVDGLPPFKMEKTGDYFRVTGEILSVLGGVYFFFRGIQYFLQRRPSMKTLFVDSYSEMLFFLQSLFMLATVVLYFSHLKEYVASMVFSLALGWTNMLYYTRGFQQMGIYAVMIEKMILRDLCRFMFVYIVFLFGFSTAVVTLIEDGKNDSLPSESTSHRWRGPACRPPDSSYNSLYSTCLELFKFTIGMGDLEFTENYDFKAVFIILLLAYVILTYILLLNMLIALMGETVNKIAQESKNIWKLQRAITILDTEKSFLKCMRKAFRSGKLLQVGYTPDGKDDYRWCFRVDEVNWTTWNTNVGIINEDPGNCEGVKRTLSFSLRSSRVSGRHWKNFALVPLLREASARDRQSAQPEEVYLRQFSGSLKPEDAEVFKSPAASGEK

[O-][S+](c1ccc(Cl)cn1)[C@H]1CCN(c2ccc(-c3ccccc3C3CC3)cc2CO)C1 (stereo partly shown) [Example 6]
inhibition at 0.3 µM (hTRPV3): 4.73%

CC(C)c1ccccc1-c1ccc(N2CC[C@H](S(=O)(=O)c3ccc(Cl)cn3)C2)c(CO)c1 [Example 2, ((S)-(4-(3-(5-chloropyridin-2-yl)sulfonyl)pyrrolidin-1-yl)-2′-isopropyl-[1,1′-biphenyl]-3-yl) methanol]
inhibition at 0.3 µM (hTRPV3): 18.6%

CC(C)c1ccccc1-c1ccc(N2CC[C@H](Sc3ccc(C(F)(F)F)cn3)C2)c(CO)c1 [Example 7, ((S)-(2′-isopropyl-4-(3-(5-(trifluoromethyl)pyridin-2-yl)thio)pyrrolidin-1-yl)-[1,1′-biphenyl]-3-yl) methanol]
inhibition at 0.3 µM (hTRPV3): 38%

OCc1cc(-c2ccccc2C2CC2)ccc1N1CC[C@H](Sc2ccc(Cl)cn2)C1 [Example 4, ((S)-(4-(3-(5-chloropyridin-2-yl)thio)pyrrolidin-1-yl)-2′-cyclopropyl-[1,1′-biphenyl]-3-yl) methanol]
inhibition at 0.3 µM (hTRPV3): 72.8% | Selectivity ratio (hTRPV3) (hTRPV3; ratio of inhibition rate on TRPV3 to inhibition rate on this channel, 0.3 μM): 1x | inhibition at 0.3 µM (hTRPV1; 0.3 μM, patch clamp method, read-out: Inhibition rate (%) on hTRPV1): 0.48% | Selectivity ratio (hTRPV1) (hTRPV1; ratio of inhibition rate on TRPV3 to inhibition rate on hTRPV1, 0.3 μM): 152x | inhibition at 0.3 µM (hTRPV4; 0.3 μM, patch clamp method, read-out: Inhibition rate (%) on hTRPV4): 36.2% | Selectivity ratio (hTRPV4) (hTRPV4; ratio of inhibition rate on TRPV3 to inhibition rate on hTRPV4, 0.3 μM): 2x | inhibition at 0.3 µM (hTRPA1; 0.3 μM, patch clamp method, read-out: Inhibition rate (%) on hTRPA1): 2.44% | Selectivity ratio (hTRPA1) (hTRPA1; ratio of inhibition rate on TRPV3 to inhibition rate on hTRPA1, 0.3 μM): 30x

OCc1cc(-c2ccccc2C2CC2)ccc1N1CC[C@H](Sc2ccc(F)cn2)C1 [Example 10, ((S)-(4-(3-(5-fluoropyridin-2-yl)thio)pyrrolidin-1-yl)-2′-cyclopropyl-[1,1′-biphenyl]-3-yl) methanol]
inhibition at 0.3 µM (hTRPV3): 97.8%

CC(C)c1ccccc1-c1ccc(N2CC[C@H](Sc3ccc(Cl)cn3)C2)c(CO)c1 [Example 1, ((S)-(4-(3-(5-chloropyridin-2-yl)thio)pyrrolidin-1-yl)-2′-isopropyl-[1,1′-biphenyl]-3-yl) methanol]
inhibition at 0.3 µM (hTRPV3): 71.6% | in vitro Clint [1]: 135.00 microliters/minute/milligrams | half-life at 1 μM ([1]; read-out: in vitro T1/2): 10.3 min | in vitro Clint [2]: 112.14 microliters/minute/milligrams | half-life at 1 μM ([2]; read-out: in vitro T1/2): 12.4 min

CC(C)c1ccccc1-c1ccc(N2CC[C@H]([S+]([O-])c3ccc(Cl)cn3)C2)c(CO)c1 (stereo partly shown) [Example 3]
inhibition at 0.3 µM (hTRPV3): 9.96%

O=S(=O)(c1ccc(Cl)cn1)[C@H]1CCN(c2ccc(-c3ccccc3C3CC3)cc2CO)C1 [Example 5, (S)-(4-(3-((5-chloropyridin-2-yl)sulfonyl)pyrrolidin-1-yl)-2′-cyclopropyl-[1,1′-biphenyl]-3-yl) methanol]
inhibition at 0.3 µM (hTRPV3): 23.1%
